According to patent US20140206633A1, “PROCESS FOR THE PREPARATION OF ISOXAZOLINE DERIVATIVES” (SYNGENTA CROP PROTECTION LLC, priority 2010, published 2014):

| melting point | Structure (SMILES) |
| --- | --- |
| 162 to 165 °C (dec.) | C=CC1C[N+]2(Cc3c(F)c(F)c(F)c(F)c3F)CCC1C[C@H]2[C@H](O)c1ccnc2ccc(OC)cc12.[Br-] (some centres unmarked) |
| 150 to 152 °C (dec.) | C=CC1C[N+]2(Cc3c4ccccc4cc4ccccc34)CCC1C[C@H]2[C@H](O)c1ccnc2ccc(OC)cc12.[Cl-] (some centres unmarked) |
